# Calls of active or inactive are those of the source. The rule behind the calls is not given here.
# What was measured:
# OVCAR-5 = assay: Cytotoxicity against human OVCAR-5 cells assessed as cell growth inhibition; format: functional, cell-based
# NCI-H322M = assay: Cytotoxicity against human NCI-H322M cells assessed as cell growth inhibition; format: functional, cell-based
# [1] = target: Ectonucleotide pyrophosphatase/phosphodiesterase family member 1 (Homo sapiens, UniProt P22413); assay: Inhibition of human NPP1 expressed in COS-7 cells using pNP-TMP as substrate preincubated for 10 mins followed by substrate addition and measured after 35 mins by microplate reader analysis; format: cell-based
# M14 = assay: Cytotoxicity against human M14 cells assessed as cell growth inhibition; format: functional, cell-based
# HOP-62 = assay: Cytotoxicity against human HOP-62 cells assessed as cell growth inhibition; format: functional, cell-based
# MCF7 = assay: Cytotoxicity against human MCF7 cells assessed as cell growth inhibition; format: functional, cell-based
# OVCAR-4 = assay: Cytotoxicity against human OVCAR-4 cells assessed as cell growth inhibition; format: functional, cell-based
# SNB-19 = assay: Cytotoxicity against human SNB-19 cells assessed as cell growth inhibition; format: functional, cell-based
# 786-0 = assay: Cytotoxicity against human 786-0 cells assessed as cell growth inhibition; format: functional, cell-based
# UO-31 = assay: Cytotoxicity against human UO-31 cells assessed as cell growth inhibition; format: functional, cell-based
# [2] = Selectivity index, ratio of IC50 for cytotoxicity against human hTERT-HME1 cells to IC50 for cytotoxicity against human BT-549 cells
# SW-620 = assay: Cytotoxicity against human SW620 cells assessed as cell growth inhibition; format: functional, cell-based
# IGROV-1 = assay: Cytotoxicity against human IGROV-1 cells assessed as cell growth inhibition; format: functional, cell-based
# MDA-MB-231 = assay: Cytotoxicity against human MDA-MB-231 cells assessed as cell growth inhibition; format: functional, cell-based
# HCT-15 = assay: Cytotoxicity against human HCT-15 cells assessed as cell growth inhibition; format: functional, cell-based
# SN12C = assay: Cytotoxicity against human SN12C cells assessed as cell growth inhibition; format: functional, cell-based
# PC-3 = assay: Cytotoxicity against human PC-3 cells assessed as cell growth inhibition; format: functional, cell-based
# Carbonic anhydrase 9 = Carbonic anhydrase 9 (Homo sapiens, UniProt Q16790)
# Description: Inhibition of Carbonic anhydrase 9 (unknown origin) using p-nitrophenyl acetate as substrate preincubated for 10 mins followed by substrate addition and measured after 30 mins by microplate reader method
# BT-549 = assay: Cytotoxicity against human BT-549 cells assessed as cell growth inhibition; format: functional, cell-based
# UACC-257 = assay: Cytotoxicity against human UACC-257 cells assessed as cell growth inhibition; format: functional, cell-based
# SR = assay: Cytotoxicity against human SR cells assessed as cell growth inhibition; format: functional, cell-based
# T47D = assay: Cytotoxicity against human T47D cells assessed as cell growth inhibition; format: functional, cell-based
# HT-29 [3] = assay: Cytotoxicity against human HT-29 cells assessed as cell growth inhibition; format: functional, cell-based
# MDA-MB-468 = assay: Cytotoxicity against human MDA-MB-468 cells assessed as cell growth inhibition; format: functional, cell-based
# UACC-62 = assay: Cytotoxicity against human UACC-62 cells assessed as cell growth inhibition; format: functional, cell-based
# K562 = assay: Cytotoxicity against human K562 cells assessed as cell growth inhibition; format: functional, cell-based
# RXF 393 = assay: Cytotoxicity against human RXF 393 cells assessed as cell growth inhibition; format: functional, cell-based
# SF-539 = assay: Cytotoxicity against human SF-539 cells assessed as cell growth inhibition; format: functional, cell-based
# NCI/ADR-RES = assay: Cytotoxicity against human NCI/ADR-RES cells assessed as cell growth inhibition; format: functional, cell-based
# NCI-H23 = assay: Cytotoxicity against human NCI-H23 cells assessed as cell growth inhibition; format: functional, cell-based
# LOX IMVI = assay: Cytotoxicity against human LOX IMVI cells assessed as cell growth inhibition; format: functional, cell-based
# U-251 = assay: Cytotoxicity against human U-251 cells assessed as cell growth inhibition; format: functional, cell-based
# COLO 205 = assay: Cytotoxicity against human COLO 205 cells assessed as cell growth inhibition; format: functional, cell-based
# SK-MEL-2 = assay: Cytotoxicity against human SK-MEL-2 cells assessed as cell growth inhibition; format: functional, cell-based
# [4] = target: Ectonucleotide pyrophosphatase/phosphodiesterase family member 3 (Homo sapiens, UniProt O14638); assay: Inhibition of human NPP3 expressed in COS-7 cells using pNP-TMP as substrate preincubated for 10 mins followed by substrate addition and measured after 35 mins by microplate reader analysis; format: cell-based
# NCI-H226 = assay: Cytotoxicity against human NCI-H226 cells assessed as cell growth inhibition; format: functional, cell-based
# ACHN = assay: Cytotoxicity against human ACHN cells assessed as cell growth inhibition; format: functional, cell-based
# NCI-H460 = assay: Cytotoxicity against human NCI-H460 cells assessed as cell growth inhibition; format: functional, cell-based
# Autotaxin = Autotaxin (Homo sapiens, UniProt Q13822); assay: Inhibition of human NPP2 expressed in COS-7 cells using pNP-TMP as substrate preincubated for 10 mins followed by substrate addition and measured after 35 mins by microplate reader analysis; format: cell-based
# HOP-92 = assay: Cytotoxicity against human HOP-92 cells assessed as cell growth inhibition; format: functional, cell-based
# SK-MEL-28 = assay: Cytotoxicity against human SK-MEL-28 cells assessed as cell growth inhibition; format: functional, cell-based
# SF-295 = assay: Cytotoxicity against human SF-295 cells assessed as cell growth inhibition; format: functional, cell-based
# RPMI-8226 = assay: Cytotoxicity against human RPMI-8226 cells assessed as cell growth inhibition; format: functional, cell-based
# Malme-3M = assay: Cytotoxicity against human Malme-3M cells assessed as cell growth inhibition; format: functional, cell-based
# OVCAR-8 = assay: Cytotoxicity against human OVCAR-8 cells assessed as cell growth inhibition; format: functional, cell-based
# HT-29 [5] = assay: Cytotoxicity against human HT-29 assessed as cell growth inhibition; format: functional, cell-based
# SK-MEL-5 = assay: Cytotoxicity against human SK-MEL-5 cells assessed as cell growth inhibition; format: functional, cell-based
# SK-OV-3 = assay: Cytotoxicity against human SK-OV-3 cells assessed as cell growth inhibition; format: functional, cell-based
# [6] = Cytotoxicity against human hTERT-HME1 cells assessed as cell growth inhibition; format: toxicity, cell-based
# A549 = assay: Cytotoxicity against human A549 cells assessed as cell growth inhibition; format: functional, cell-based
# KM12 = assay: Cytotoxicity against human KM12 cells assessed as cell growth inhibition; format: functional, cell-based
# NCI-H522 = assay: Cytotoxicity against human NCI-H522 cells assessed as cell growth inhibition; format: functional, cell-based
# MDA-MB-435 = assay: Cytotoxicity against human MDA-MB-435 cells assessed as cell growth inhibition; format: functional, cell-based
# Hs-578T = assay: Cytotoxicity against human Hs-578T cells assessed as cell growth inhibition; format: functional, cell-based
# DU-145 = assay: Cytotoxicity against human DU-145 cells assessed as cell growth inhibition; format: functional, cell-based
# HCT-116 = assay: Cytotoxicity against human HCT-116 cells assessed as cell growth inhibition; format: functional, cell-based
# A498 = assay: Cytotoxicity against human A498 cells assessed as cell growth inhibition; format: functional, cell-based
# SF-268 = assay: Cytotoxicity against human SF-268 cells assessed as cell growth inhibition; format: functional, cell-based
# SNB-75 = assay: Cytotoxicity against human SNB-75 cells assessed as cell growth inhibition; format: functional, cell-based
# TK-10 = assay: Cytotoxicity against human TK-10 cells assessed as cell growth inhibition; format: functional, cell-based
# HT-29 [7] = assay: Cytotoxicity against human HT-29 assessed as mean growth inhibition; format: functional
# HL-60(TB) = assay: Cytotoxicity against human HL-60(TB) cells assessed as cell growth inhibition; format: functional, cell-based
# Sequence of Ectonucleotide pyrophosphatase/phosphodiesterase family member 1 (P22413 whole entry): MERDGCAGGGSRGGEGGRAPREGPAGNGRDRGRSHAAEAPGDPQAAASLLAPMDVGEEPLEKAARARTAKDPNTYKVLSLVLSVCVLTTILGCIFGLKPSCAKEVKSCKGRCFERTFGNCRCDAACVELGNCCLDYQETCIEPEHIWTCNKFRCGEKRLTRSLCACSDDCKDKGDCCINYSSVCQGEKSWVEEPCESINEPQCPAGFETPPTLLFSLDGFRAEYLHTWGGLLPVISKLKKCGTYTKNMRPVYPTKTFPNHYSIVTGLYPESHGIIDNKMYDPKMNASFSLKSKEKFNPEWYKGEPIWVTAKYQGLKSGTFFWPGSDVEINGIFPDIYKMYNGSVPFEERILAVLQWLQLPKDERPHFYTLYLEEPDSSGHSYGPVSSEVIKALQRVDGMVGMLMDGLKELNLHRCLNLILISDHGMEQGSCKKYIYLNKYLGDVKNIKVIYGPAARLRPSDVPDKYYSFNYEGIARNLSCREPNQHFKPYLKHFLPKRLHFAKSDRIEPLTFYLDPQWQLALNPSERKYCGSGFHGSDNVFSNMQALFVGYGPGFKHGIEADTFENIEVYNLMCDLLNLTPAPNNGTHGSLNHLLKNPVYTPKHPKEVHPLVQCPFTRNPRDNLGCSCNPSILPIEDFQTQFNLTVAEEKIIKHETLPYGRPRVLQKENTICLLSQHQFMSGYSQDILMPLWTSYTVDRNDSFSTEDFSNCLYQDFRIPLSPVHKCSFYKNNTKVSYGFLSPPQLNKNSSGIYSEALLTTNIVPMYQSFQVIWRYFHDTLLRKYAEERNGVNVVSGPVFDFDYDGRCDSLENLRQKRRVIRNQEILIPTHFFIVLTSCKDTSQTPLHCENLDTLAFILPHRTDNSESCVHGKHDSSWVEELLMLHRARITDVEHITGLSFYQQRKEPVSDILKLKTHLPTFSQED
# Sequence of Ectonucleotide pyrophosphatase/phosphodiesterase family member 3 (O14638 whole entry): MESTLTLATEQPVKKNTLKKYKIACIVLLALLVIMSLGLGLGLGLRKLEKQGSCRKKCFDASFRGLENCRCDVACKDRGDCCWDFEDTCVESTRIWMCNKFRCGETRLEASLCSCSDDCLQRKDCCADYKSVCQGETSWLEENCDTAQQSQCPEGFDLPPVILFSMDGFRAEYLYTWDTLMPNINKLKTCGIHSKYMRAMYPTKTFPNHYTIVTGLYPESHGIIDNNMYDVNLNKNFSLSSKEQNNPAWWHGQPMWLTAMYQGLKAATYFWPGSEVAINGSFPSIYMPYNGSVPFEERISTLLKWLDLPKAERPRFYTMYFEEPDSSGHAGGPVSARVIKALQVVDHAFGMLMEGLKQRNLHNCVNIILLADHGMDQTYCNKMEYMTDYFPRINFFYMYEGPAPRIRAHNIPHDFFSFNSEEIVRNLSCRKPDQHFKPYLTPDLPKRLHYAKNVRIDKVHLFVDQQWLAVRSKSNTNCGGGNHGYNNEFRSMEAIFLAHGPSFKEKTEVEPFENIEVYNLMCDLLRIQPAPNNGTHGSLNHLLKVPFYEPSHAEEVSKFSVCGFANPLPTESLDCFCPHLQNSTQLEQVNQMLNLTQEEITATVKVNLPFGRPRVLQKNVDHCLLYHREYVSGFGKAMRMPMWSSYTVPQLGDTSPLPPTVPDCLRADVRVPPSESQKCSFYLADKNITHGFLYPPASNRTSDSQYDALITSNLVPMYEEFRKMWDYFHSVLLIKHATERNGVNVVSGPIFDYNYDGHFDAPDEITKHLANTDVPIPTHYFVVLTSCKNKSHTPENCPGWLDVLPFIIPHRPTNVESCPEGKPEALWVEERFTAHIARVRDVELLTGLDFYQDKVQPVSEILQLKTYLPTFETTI
smiles,measurement,setting,value
O=C(Nc1ccc(OS(=O)(=O)c2ccc(F)cc2)cc1)C12CC3CC(CC(C3)C1)C2,IC50,OVCAR-5,28.8 µM
same,IC50,NCI-H322M,5.55 µM
same,IC50,[1],1.13 µM
same,IC50,M14,6.02 µM
same,IC50,HOP-62,11.1 µM
same,IC50,MCF7,0.59 µM
same,IC50,OVCAR-4,1.61 µM
same,IC50,SNB-19,15.7 µM
same,IC50,786-0,5.08 µM
same,IC50,UO-31,3.43 µM
same,Ratio IC50,[2],11.7
same,IC50,SW-620,0.41 µM
same,IC50,IGROV-1,10.4 µM
same,IC50,MDA-MB-231,1.87 µM
same,IC50,HCT-15,0.42 µM
same,IC50,SN12C,19 µM
same,IC50,PC-3,0.49 µM
same,IC50,Carbonic anhydrase 9,0.33 µM
same,IC50,BT-549,4.28 µM
same,IC50,UACC-257,3.4 µM
same,IC50,SR,3.6 µM
same,IC50,T47D,0.83 µM
same,IC50,HT-29 [3],0.2 µM
same,IC50,MDA-MB-468,1.01 µM
same,IC50,UACC-62,3.14 µM
same,IC50,K562,0.58 µM
same,IC50,RXF 393,4.76 µM
same,IC50,SF-539,0.76 µM
same,IC50,NCI/ADR-RES,0.94 µM
same,IC50,NCI-H23,7.71 µM
same,IC50,LOX IMVI,7.57 µM
same,IC50,U-251,19.4 µM
same,IC50,COLO 205,0.58 µM
same,IC50,SK-MEL-2,10.5 µM
same,IC50,[4],0.74 µM
same,IC50,NCI-H226,19.2 µM
same,IC50,ACHN,15.7 µM
same,IC50,NCI-H460,2.3 µM
same,IC50,Autotaxin,1.07 µM
same,IC50,HOP-92,1.06 µM
same,IC50,SK-MEL-28,28.7 µM
same,IC50,SF-295,1.81 µM
same,IC50,RPMI-8226,2.15 µM
same,IC50,Malme-3M,4.07 µM
same,IC50,OVCAR-8,12.8 µM
same,inhibition,HT-29 [5],Active
same,IC50,SK-MEL-5,3.61 µM
same,IC50,SK-OV-3,7.83 µM
same,IC50,[6],> 50 µM
same,IC50,A549,2.3 µM
same,IC50,KM12,0.72 µM
same,IC50,NCI-H522,3.39 µM
same,IC50,MDA-MB-435,7.8 µM
same,IC50,Hs-578T,2.29 µM
same,IC50,DU-145,10.6 µM
same,IC50,HCT-116,0.63 µM
same,IC50,A498,0.28 µM
same,IC50,SF-268,20.8 µM
same,IC50,SNB-75,1.97 µM
same,IC50,TK-10,20.2 µM
same,inhibition (INH),HT-29 [7],63.5%
same,IC50,HL-60(TB),2.68 µM
O=C(Nc1ccc(OS(=O)(=O)c2ccccc2)cc1)C12CC3CC(CC(C3)C1)C2,IC50,OVCAR-5,> 100 µM
same,IC50,NCI-H322M,> 100 µM
same,IC50,[1],1.36 µM
same,IC50,M14,7.2 µM
same,IC50,HOP-62,> 100 µM
same,IC50,MCF7,3.26 µM
same,IC50,OVCAR-4,8.38 µM
same,IC50,SNB-19,> 100 µM
same,IC50,786-0,3.8 µM
same,IC50,UO-31,18.7 µM
same,Ratio IC50,[2],15.4
same,IC50,SW-620,1.97 µM
same,IC50,IGROV-1,> 100 µM
same,IC50,MDA-MB-231,3.79 µM
same,IC50,HCT-15,1 µM
same,IC50,SN12C,> 100 µM
same,IC50,PC-3,2.9 µM
same,IC50,Carbonic anhydrase 9,1.02 µM
same,IC50,BT-549,3.24 µM
same,IC50,UACC-257,13.5 µM
same,IC50,SR,0.58 µM
same,IC50,T47D,3.57 µM
same,IC50,HT-29 [3],0.4 µM
same,IC50,MDA-MB-468,3.8 µM
same,IC50,UACC-62,6.47 µM
same,IC50,K562,0.32 µM
same,IC50,RXF 393,5.12 µM
same,IC50,SF-539,0.96 µM
same,IC50,NCI/ADR-RES,5.75 µM
same,IC50,NCI-H23,6.68 µM
same,IC50,LOX IMVI,4.38 µM
same,IC50,U-251,4.81 µM
same,IC50,COLO 205,0.87 µM
same,IC50,SK-MEL-2,> 100 µM
same,IC50,[4],3 µM
same,IC50,NCI-H226,27.7 µM
same,IC50,ACHN,> 100 µM
same,IC50,NCI-H460,6.1 µM
same,IC50,Autotaxin,1.35 µM
same,IC50,HOP-92,1.87 µM
same,IC50,SK-MEL-28,> 100 µM
same,IC50,SF-295,8.27 µM
same,IC50,RPMI-8226,0.4 µM
same,IC50,Malme-3M,> 100 µM
same,IC50,OVCAR-8,> 100 µM
same,inhibition,HT-29 [5],Active
same,IC50,SK-MEL-5,3.12 µM
same,IC50,SK-OV-3,> 100 µM
same,IC50,[6],> 50 µM
same,IC50,A549,6.9 µM
same,IC50,KM12,2.1 µM
same,IC50,NCI-H522,4.36 µM
same,IC50,MDA-MB-435,> 100 µM
same,IC50,Hs-578T,7.29 µM
same,IC50,DU-145,> 100 µM
same,IC50,HCT-116,2.5 µM
same,IC50,A498,2.04 µM
same,IC50,SF-268,> 100 µM
same,IC50,SNB-75,7.16 µM
same,IC50,TK-10,> 100 µM
same,inhibition (INH),HT-29 [7],85.4%
same,IC50,HL-60(TB),8.39 µM
